For one compound, IC50 results are on record in patent US11236102B2, “Oxabicycloheptane prodrugs” (Lixte Biotechnology, Inc., priority 2015, dated 2022).

This assay deals with protein phosphatase PP2A (Homo sapiens, UniProt P67775). In words: Inhibition of purified protein phosphatase PP2A. It counts as biochemical. On the procedure:
In vivo, endothall has a longer half-life that LB-100 on the order of 6 hours compared to about 1 hour or less for LB-100. […] A half-life of several hours of activity is clinically more desirable that much shorter durations. Modification of substituents of LB-100 provide opportunities to further enhance the clinical usefulness of LB-100 by for example improving oral absorption, uptake into specific organs bearing the disease process, for example, the brain, and further modifying the rate of conversion for effective delivery of parent compound and/or endothall to tissue.

Sequence of protein phosphatase PP2A (P67775 whole entry): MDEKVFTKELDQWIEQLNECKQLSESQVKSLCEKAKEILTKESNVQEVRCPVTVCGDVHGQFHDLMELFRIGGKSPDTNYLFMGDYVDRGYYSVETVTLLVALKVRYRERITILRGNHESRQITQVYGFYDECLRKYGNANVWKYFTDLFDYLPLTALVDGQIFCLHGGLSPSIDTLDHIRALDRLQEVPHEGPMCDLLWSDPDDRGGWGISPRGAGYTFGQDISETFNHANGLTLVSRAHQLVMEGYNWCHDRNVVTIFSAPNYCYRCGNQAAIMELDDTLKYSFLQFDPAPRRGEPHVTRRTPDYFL

One may read the IC50 as the concentration that gives 50% inhibition. Higher therefore signals lower potency. As for `O=C(O)C1C2CCC(O2)C1C(=O)O` (stereo not shown) [Endothal, 7-oxabicyclo[2.2.1]heptane-2,3-dicarboxylic acid], the IC50 was approximately 90 nM.
